Test results: PMC10757017 (Heliyon, 2023)

Key:
α-glucosidase [1] = target: T1, α-glucosidase (Saccharomyces cerevisiae, UniProt P53341); test: α-Glucosidase inhibitory assay; assay type: biochemical
α-glucosidase [2] = target: T1, α-glucosidase; test: Kinetic studies; assay type: biochemical; conditions: for type of inhibition: Lineweaver-Burk plots, Km increases, Vmax constant

T1 sequence (P53341 whole entry): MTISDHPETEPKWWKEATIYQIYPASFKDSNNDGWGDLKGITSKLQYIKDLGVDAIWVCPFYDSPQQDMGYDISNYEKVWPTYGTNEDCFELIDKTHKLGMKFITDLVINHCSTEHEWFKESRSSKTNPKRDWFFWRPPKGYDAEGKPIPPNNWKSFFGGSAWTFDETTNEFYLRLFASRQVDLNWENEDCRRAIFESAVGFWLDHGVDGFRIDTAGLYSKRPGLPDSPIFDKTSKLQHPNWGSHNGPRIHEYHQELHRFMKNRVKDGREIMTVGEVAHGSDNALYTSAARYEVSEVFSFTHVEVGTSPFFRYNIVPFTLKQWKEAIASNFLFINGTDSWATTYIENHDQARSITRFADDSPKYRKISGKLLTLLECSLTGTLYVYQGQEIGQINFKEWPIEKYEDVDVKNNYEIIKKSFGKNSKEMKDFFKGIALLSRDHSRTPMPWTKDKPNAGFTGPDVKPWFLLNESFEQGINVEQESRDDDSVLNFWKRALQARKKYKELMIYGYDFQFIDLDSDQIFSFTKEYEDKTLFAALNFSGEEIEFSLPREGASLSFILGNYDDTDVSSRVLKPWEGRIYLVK

SMILES: CN(C)c1ccc(C(=NN=Cc2ccc(O)cc2O)c2ccc(N(C)C)cc2)cc1 [Compound 2, 4-{[bis-(4-dimethylamino-phenyl)-methylene]-hydrazonomethyl}-benzene-1,3-diol]
- IC50 (α-glucosidase [1]): 0.68 ± 0.29 µM

SMILES: CN(C)c1ccc(C(=NN=Cc2cccc(O)c2O)c2ccc(N(C)C)cc2)cc1 [Compound 4, 3-{[bis-(4-dimethylamino-phenyl)-methylene]-hydrazonomethyl}-benzene-1,2-diol]
- IC50 (α-glucosidase [1]): 0.33 µM

SMILES: CN(C)c1ccc(C(=NN=Cc2cc([N+](=O)[O-])ccc2O)c2ccc(N(C)C)cc2)cc1 [Compound 8, 2-{[bis-(4-dimethylamino-phenyl)-methylene]-hydrazonomethyl}-4-nitro-phenol]
- IC50 (α-glucosidase [1]): 0.28 µM
- Ki (α-glucosidase [2]): 2.79 ± 0.011 µM
- type of inhibition (α-glucosidase [2]): competitive

SMILES: COc1cccc(C=NN=C(c2ccc(N(C)C)cc2)c2ccc(N(C)C)cc2)c1O [Compound 9, 2-{[bis-(4-dimethylamino-phenyl)-methylene]-hydrazonomethyl}-6-methoxy-phenol]
- IC50 (α-glucosidase [1]): 0.28 µM
- Ki (α-glucosidase [2]): 3.64 ± 0.012 µM
- type of inhibition (α-glucosidase [2]): competitive

SMILES: CN(C)c1ccc(C(=NN=Cc2cccc(C=O)c2)c2ccc(N(C)C)cc2)cc1 [Compound 15, 3-{[bis-(4-dimethylamino-phenyl)-methylene]-hydrazonomethyl}-benzaldehyde]
- IC50 (α-glucosidase [1]): 0.49 ± 1.43 µM

SMILES: CN(C)c1ccc(C(=NN=Cc2ccc(O)c(O)c2)c2ccc(N(C)C)cc2)cc1 [Compound 17, 4-{[bis-(4-dimethylamino-phenyl)-methylene]-hydrazonomethyl}-benzene-1,2-diol]
- IC50 (α-glucosidase [1]): 0.35 µM

SMILES: CN(C)c1ccc(C(=NN=Cc2ccc(O)cc2)c2ccc(N(C)C)cc2)cc1 [Compound 26, 4-{[bis-(4-dimethylamino-phenyl)-methylene]-hydrazonomethyl}-phenol]
- IC50 (α-glucosidase [1]): 0.82 ± 1.12 µM
